Consider 16 compounds from patent US10689383B2, “Optionally fused heterocyclyl-substituted derivatives of pyrimidine useful for the treatment of inflammatory, metabolic, oncologic and autoimmune diseases” (NUEVOLUTION A/S, priority 2014, dated 2020).

In assay [1] the target is T1, human RORγt (Ligand Binding Domain) (Homo sapiens, UniProt P51449).
T1 construct: purchased Crelux (Planegg, Germany) batch no PC5032-1
T1 sequence (P51449 269-508 limits assumed): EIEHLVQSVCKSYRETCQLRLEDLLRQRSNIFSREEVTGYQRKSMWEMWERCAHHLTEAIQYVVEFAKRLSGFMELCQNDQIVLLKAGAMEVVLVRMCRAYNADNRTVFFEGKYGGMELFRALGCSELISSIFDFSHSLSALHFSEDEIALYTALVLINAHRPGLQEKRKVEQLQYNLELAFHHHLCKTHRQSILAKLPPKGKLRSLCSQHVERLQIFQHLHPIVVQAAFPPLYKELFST
Briefly: Fluorescence Polarization (FP) Assay. The conditions noted are these: Fluorescence Polarization (FP) Assay; values given as upper bounds of activity ranges; read-out: FP activity range. The gist of the method: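 In vitro FP binding assay monitoring ligand binding within the ligand binding pocket. Probe is a TAMRA-labelled RORγt ligand (MW 910 g/mole); DMSO served as negative control.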
A general note: Fluorescence polarisation rises when a labelled molecule tumbles more slowly, as on binding a larger partner.

The target of assay [2] is T2, yeast Gal4-DNA binding domain fused to the ligand binding domain of human RORγ (Homo sapiens, UniProt P51449).
T2 construct: host or cells: HEK293t
T2 sequence (P51449 269-508 limits assumed): T1 sequence (P51449 269-508 limits assumed)
Briefly: RORγ Reporter Assay (Gal4). The assay is classed as cell-based. The conditions noted are these: values given as lower bounds of ranges; for Gal4 activity range @ 0.1 μM (% inhibition): RORγ Reporter Assay (Gal4) at 0.1 μM; for Gal4 activity range @ 1 μM (% inhibition): RORγ Reporter Assay (Gal4) at 1 μM. The gist of the method:
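HEK293t reporter cells expressing the hybrid, with Gal4-UAS-driven firefly luciferase, treated in triplicate with compound at 1,000 nM and 100 nM (0.1% DMSO) in medium with 10% charcoal-stripped FBS for 24 h at 37 °C. Luminescence read; percent reduction of RLU calculated relative to vehicle.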
A general note: Reporter assays use an easily measured gene product as a stand-in for the process of interest.

`Cc1ccc(CNc2ncnc(N3CC(C)CC3c3ccc(C(F)(F)F)cc3)c2F)cn1` (centres unmarked) [Example 211, 5-fluoro-N-[(6-methyl-3-pyridyl)methyl]-6-[4-methyl-2-[4-(trifluoromethyl)phenyl]pyrrolidin-1-yl]pyrimidin-4-amine]: in assay [1], the IC50 was less than 1000 nM. Further, in assay [2], the “Gal4 activity range @ 0.1 μM (% inhibition)” value is on record as more than 0 % inhibition and the “Gal4 activity range @ 1 μM (% inhibition)” value is recorded as more than 50 % inhibition.
In the same order, the values of `OC1(CNc2ncnc(N3CCC[C@@H]3c3ccc(C(F)(F)F)cc3)c2F)CCOC1` (stereo partly drawn) [Example 220, 3-[[[5-fluoro-6-[(2R)-2-[4-(trifluoromethyl)phenyl]pyrrolidin-1-yl]pyrimidin-4-yl]amino]methyl]tetrahydrofuran-3-ol] are less than 500 nM, more than 20 % inhibition and more than 80 % inhibition.
In the case of `OCCC1(CNc2ncnc(N3CCC[C@@H]3c3ccc(C(F)(F)F)cc3)c2F)CCOCC1` [Example 221, 2-[4-[[[5-fluoro-6-[(2R)-2-[4-(trifluoromethyl)phenyl]pyrrolidin-1-yl]pyrimidin-4-yl]amino]methyl]tetrahydropyran-4-yl]ethanol], the IC50 in assay [1] is less than 500 nM. Moreover, in assay [2], the “Gal4 activity range @ 0.1 μM (% inhibition)” value is on record as more than 50 % inhibition and the “Gal4 activity range @ 1 μM (% inhibition)” value is more than 80 % inhibition.
On to `O=S1(=O)CCC(CNc2ncnc(N3CCC[C@@H]3c3ccc(C(F)(F)F)cc3)c2F)CC1` [Example 222, N-[(1,1-dioxothian-4-yl)methyl]-5-fluoro-6-[(2R)-2-[4-(trifluoromethyl)phenyl]pyrrolidin-1-yl]pyrimidin-4-amine], for which the IC50 in assay [1] was less than 2000 nM. In addition, in assay [2], the “Gal4 activity range @ 0.1 μM (% inhibition)” value is recorded as more than 20 % inhibition and the “Gal4 activity range @ 1 μM (% inhibition)” value is on record as more than 80 % inhibition.
On to `O=S1(=O)CCC(O)(CNc2ncnc(N3CCC[C@@H]3c3ccc(C(F)(F)F)cc3)c2F)CC1` [Example 223, 4-[[[5-fluoro-6-[(2R)-2-[4-(trifluoromethyl)phenyl]pyrrolidin-1-yl]pyrimidin-4-yl]amino]methyl]-1,1-dioxo-thian-4-ol], for which the IC50 in assay [1] was less than 500 nM. For the same compound, in assay [2], the “Gal4 activity range @ 0.1 μM (% inhibition)” value was more than 50 % inhibition and the “Gal4 activity range @ 1 μM (% inhibition)” value was more than 80 % inhibition.
The matching figures for `O=S(=O)(NC1CC1)c1ccc(CNc2ncnc(N3CCC[C@@H]3c3ccc(C(F)(F)F)cc3)c2F)cc1` [Example 224, N-cyclopropyl-4-[[[5-fluoro-6-[(2R)-2-[4-(trifluoromethyl)phenyl]pyrrolidin-1-yl]pyrimidin-4-yl]amino]methyl]benzenesulfonamide]: less than 500 nM, more than 80 % inhibition and more than 80 % inhibition.
In the case of `OCC1CCC(CNc2ncnc(N3CCC[C@@H]3c3ccc(C(F)(F)F)cc3)c2F)CC1` (stereo partly drawn) [Example 225, [4-[[[5-fluoro-6-[(2R)-2-[4-(trifluoromethyl)phenyl]pyrrolidin-1-yl]pyrimidin-4-yl]amino]methyl]cyclohexyl] methanol], the IC50 in assay [1] was less than 500 nM. In assay [2], the “Gal4 activity range @ 0.1 μM (% inhibition)” value was more than 80 % inhibition and the “Gal4 activity range @ 1 μM (% inhibition)” value is reported as more than 80 % inhibition.
On to `NC(=O)c1ccc(CNc2ncnc(N3CCC[C@@H]3c3ccc(C(F)(F)F)cc3)c2F)cc1` [Example 226, 4-[[[5-fluoro-6-[(2R)-2-[4-(trifluoromethyl)phenyl]pyrrolidin-1-yl]pyrimidin-4-yl]amino]methyl]benzamide], for which, in assay [1], the IC50 is less than 10000 nM. Moreover, the “Gal4 activity range @ 1 μM (% inhibition)” value in assay [2] is more than 50 % inhibition.
Consider `OCc1ccc(CNc2ncnc(N3CCC[C@@H]3c3ccc(C(F)(F)F)cc3)c2F)cc1` [Example 227, [4-[[[5-fluoro-6-[(2R)-2-[4-(trifluoromethyl)phenyl]pyrrolidin-1-yl]pyrimidin-4-yl]amino]methyl]phenyl]methanol], for which the IC50 in assay [1] was less than 500 nM. In assay [2], the “Gal4 activity range @ 0.1 μM (% inhibition)” value is listed as more than 80 % inhibition and the “Gal4 activity range @ 1 μM (% inhibition)” value is more than 80 % inhibition.
With `OCC1(CNc2ncnc(N3CCC[C@@H]3c3ccc(C(F)(F)F)cc3)c2F)COC1` [Example 228, [3-[[[5-fluoro-6-[(2R)-2-[4-(trifluoromethyl)phenyl]pyrrolidin-1-yl]pyrimidin-4-yl]amino]methyl]oxetan-3-yl]methano1], the IC50 in assay [1] is less than 500 nM. In assay [2], the “Gal4 activity range @ 0.1 μM (% inhibition)” value was more than 20 % inhibition and the “Gal4 activity range @ 1 μM (% inhibition)” value is more than 80 % inhibition.
On to `CC1(c2ccc(C(F)(F)F)cc2)CCCN1c1ncnc(NCc2ccc(CC(N)=O)cc2)c1F` (centres unmarked) [Example 229, 2-[4-[[[5-fluoro-6-[2-methyl-2-[4-(trifluoromethyl)phenyl]pyrrolidin-1-yl]pyrimidin-4-yl]amino]methyl]phenyl]acetamide], for which the IC50 in assay [1] is less than 500 nM. Besides, in assay [2], the “Gal4 activity range @ 0.1 μM (% inhibition)” value is reported as more than 50 % inhibition and the “Gal4 activity range @ 1 μM (% inhibition)” value is more than 80 % inhibition.
The matching figures for `NC(=O)Cc1ccc(CNc2ncnc(N3CCOC[C@@H]3c3ccc(OC(F)(F)F)cc3)c2F)cc1` [Example 230, 2-[4-[[[5-fluoro-6-[(3S)-3-[4-(trifluoromethoxy)phenyl]morpholin-4-yl]pyrimidin-4-yl]amino]methyl]phenyl]acetamide]: less than 500 nM, more than 50 % inhibition and more than 80 % inhibition.
Take `NC(=O)Cc1ccc(CNc2ncnc(N3CC(F)(F)CC3c3ccc(C(F)(F)F)cc3)c2F)cc1` (centres unmarked) [Example 231, 2-[4-[[[6-[4,4-difluoro-2-[4-(trifluoromethyl)phenyl]pyrrolidin-1-yl]-5-fluoro-pyrimidin-4-yl]amino]methyl]phenyl]acetamide]: the IC50 in assay [1] is less than 500 nM. Moreover, in assay [2], the “Gal4 activity range @ 0.1 μM (% inhibition)” value is listed as more than 50 % inhibition and the “Gal4 activity range @ 1 μM (% inhibition)” value is more than 80 % inhibition.
In the case of `NC(=O)Cc1ccc(CNc2ncnc(N3CCC[C@@H]3c3ccc(C(F)(F)F)cc3F)c2F)cc1` [Example 232, 2-[4-[[[5-fluoro-6-[(2R)-2-[2-fluoro-4-(trifluoromethyl)phenyl]pyrrolidin-1-yl]pyrimidin-4-yl]amino]methyl]phenyl]acetamide], the IC50 in assay [1] is less than 500 nM. Further, in assay [2], the “Gal4 activity range @ 0.1 μM (% inhibition)” value is listed as more than 50 % inhibition and the “Gal4 activity range @ 1 μM (% inhibition)” value is reported as more than 80 % inhibition.
As to `CC(=O)N1CCC(CNc2ncnc(N3CCOC[C@@H]3c3ccc(C(F)(F)F)cc3)c2F)CC1` [Example 233, 1-[4-[[[5-fluoro-6-[(3S)-3-[4-(trifluoromethyl)phenyl]morpholin-4-yl]pyrimidin-4-yl]amino]methyl]-1-piperidyl]ethanone], in assay [1], the IC50 was less than 500 nM. Moreover, in assay [2], the “Gal4 activity range @ 0.1 μM (% inhibition)” value was more than 20 % inhibition and the “Gal4 activity range @ 1 μM (% inhibition)” value was more than 80 % inhibition.
For the compound `O=S1(=O)CCC(O)(CNc2ncnc(N3CCOC[C@@H]3c3ccc(C(F)(F)F)cc3)c2F)CC1` [Example 234, 4-[[[5-fluoro-6-[(3S)-3-[4-(trifluoromethyl)phenyl]morpholin-4-yl]pyrimidin-4-yl]amino]methyl]-1,1-dioxo-thian-4-ol], the IC50 in assay [1] is less than 1000 nM. In assay [2], the “Gal4 activity range @ 0.1 μM (% inhibition)” value was more than 0 % inhibition and the “Gal4 activity range @ 1 μM (% inhibition)” value was more than 50 % inhibition.
